This note sets out measurements from patent US6875760B2 (Novo Nordisk A/S, priority 1999, dated 2005).

Each structure is given as a SMILES string. Like-named read-outs stand apart in the source and are kept apart here.

For this assay, the target named is T1, human glucagon receptor (Homo sapiens, UniProt P47871).
T1 construct: expressed in transfected cells; host or cells: BHK (baby hamster kidney) cells
The experiment in a line: Glucagon Binding Assay (III). The essentials:
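Non-specific binding was set with 500 nM glucagon in this SPA-type binding assay using WGA beads. The receptor source was a membrane preparation, kept on ice or at 4 °C, from BHK cells transfected with the human receptor. Scintillation counts were taken after 4 hours of shaking and 8–48 hours of settling.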

Where [1] appears, read: BHK cell membranes, WGA SPA beads, 125I-glucagon, read-out: Glu Bd Assay (III) IC50.

T1 sequence (P47871 26-477): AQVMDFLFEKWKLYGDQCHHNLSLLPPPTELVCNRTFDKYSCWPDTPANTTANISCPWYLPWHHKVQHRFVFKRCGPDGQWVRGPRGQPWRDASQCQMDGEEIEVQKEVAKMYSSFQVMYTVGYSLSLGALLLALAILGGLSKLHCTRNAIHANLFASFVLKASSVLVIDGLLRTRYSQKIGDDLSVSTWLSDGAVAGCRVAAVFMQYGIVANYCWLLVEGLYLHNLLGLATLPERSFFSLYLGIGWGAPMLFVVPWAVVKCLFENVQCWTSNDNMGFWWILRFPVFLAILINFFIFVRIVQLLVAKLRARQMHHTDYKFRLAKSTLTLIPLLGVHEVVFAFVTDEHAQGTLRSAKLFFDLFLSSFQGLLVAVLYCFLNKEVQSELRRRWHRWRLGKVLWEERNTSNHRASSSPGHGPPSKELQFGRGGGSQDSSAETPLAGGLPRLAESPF

Regarding `O=C(Nc1nn[nH]n1)c1ccc(CN(C(=O)Nc2cc(Cl)cc(Cl)c2)c2ccc(C3CCCCC3)cc2)cc1` [Example 304, 4-[1-(4-Cyclohexylphenyl)-3-(3,5-dichlorophenyl)ureidomethyl]-N-(2H-tetrazol-5-yl)benzamide], the IC50 under setting [1] was determined as 45 nM.
Regarding `Cc1ccc(NC(=O)N(Cc2ccc(C(=O)Nc3nn[nH]n3)cc2)c2ccc(C3CCCCC3)cc2)cc1S(C)(=O)=O` [Example 305, 4-[1-(4-Cyclohexylphenyl)-3-(3-methylsulfonyl-4-methylphenyl)ureidomethyl]-N-(2H-tetrazol-5-yl)benzamide], the IC50 under setting [1] came to 55 nM.
As to `CC(O)c1cccc(NC(=O)N(Cc2ccc(C(=O)Nc3nn[nH]n3)cc2)c2ccc(C3CCCCC3)cc2)c1` (stereo not shown) [Example 306, 4-{1-(4-Cyclohexylphenyl)-3-[3-(1-hydroxyethyl)phenyl]ureidomethyl}-N-(2H-tetrazol-5-yl)benzamide], under setting [1], the IC50 stood at 209 nM.
On to `O=C(Nc1nn[nH]n1)c1ccc(CN(C(=O)Nc2ccc(OC(F)(F)F)cc2)c2ccc(C3=CCCCC3)cc2)cc1` [Example 307, 4-[1-(4-Cyclohex-1-enylphenyl)-3-(4-trifluoromethoxyphenyl)ureidomethyl]-N-(2H-tetrazol-5-yl)benzamide], for which the IC50 under setting [1] turned out to be 50 nM.
Still for that read-out and setting: under `O=C(Nc1nn[nH]n1)c1ccc(CN(C(=O)Nc2cccc([N+](=O)[O-])c2)c2ccc(C3=CCCCC3)cc2)cc1` [Example 308, 4-[1-(4-Cyclohex-1-enylphenyl)-3-(3-nitrophenyl)ureidomethyl]-N-(2H-tetrazol-5-yl)benzamide] stands 61 nM; under `CC(O)c1cccc(NC(=O)N(Cc2ccc(C(=O)Nc3nn[nH]n3)cc2)c2ccc(C(C)(C)C)cc2)c1` (stereo not shown) [Example 309, 4-{1-(4-tert-Butylphenyl)-3-[3-(1-hydroxyethyl)phenyl]ureidomethyl}-N-(2H-tetrazol-5-yl)benzamide], 566 nM.
Turning to `CS(=O)(=O)c1cccc(NC(=O)N(Cc2ccc(C(=O)Nc3nn[nH]n3)cc2)c2ccc(C3=CCCCC3)cc2)c1` [Example 310, 4-[1-(4-Cyclohex-1-enylphenyl)-3-(3-methylsulfonylphenyl)ureidomethyl]-N-(2H-tetrazol-5-yl)benzamide], the IC50 under setting [1] was found to be 61 nM.
Turning to `CC(C)(C)[Si](C)(C)OCc1cc(NC(=O)N(Cc2ccc(C(=O)Nc3nn[nH]n3)cc2)c2ccc(C3CCCCC3)cc2)ccc1OC(F)(F)F` [Example 311, 4-[3-[3-(tert-Butyldimethylsilanyloxymethyl)-4-trifluoromethoxyphenyl]-1-(4-cyclohexylphenyl)ureidomethyl]-N-(2H-tetrazol-5-yl)benzamide], the IC50 under setting [1] is 32 nM.
Regarding `CC(C)(C)c1ccc(N(Cc2ccc(C(=O)Nc3nn[nH]n3)cc2)C(=O)Nc2ccc(OC(F)(F)F)c(S(C)(=O)=O)c2)cc1` [Example 312, 4-[1-(4-tert-Butylphenyl)-3-(3-methylsulfonyl-4-trifluoromethoxyphenyl)ureidomethyl]-N-(2H-tetrazol-5-yl)benzamide], the IC50 under setting [1] is 46 nM.
Take `CC(C)(C)C1CCC(N(Cc2ccc(C(=O)Nc3nn[nH]n3)cc2)C(=O)Nc2ccc(OC(F)(F)F)c(S(C)(=O)=O)c2)CC1` (stereo not shown) [Example 313, 4-[1-(4-tert-Butylcyclohexyl)-3-(3-methylsulfonyl-4-trifluoromethoxyphenyl)ureidomethyl]-N-(2H-tetrazol-5-yl)benzamide]: the IC50 under setting [1] was found to be 18 nM.
Same read-out and setting: under `CS(=O)(=O)c1cc(NC(=O)N(Cc2ccc(C(=O)Nc3nn[nH]n3)cc2)c2ccc(C3CCCCC3)cc2)ccc1OC(F)(F)F` [Example 314, 4-[1-(4-Cyclohexylphenyl)-3-(3-methylsulfonyl-4-trifluoromethoxyphenyl)ureidomethyl]-N-(2H-tetrazol-5-yl)benzamide] stands 62 nM.
`CS(=O)(=O)c1cc(NC(=O)N(Cc2ccc(C(=O)Nc3nn[nH]n3)cc2)c2ccc(C3=CCCCC3)cc2)ccc1OC(F)(F)F` [Example 315, 4-[1-(4-Cyclohex-1-enylphenyl)-3-(3-methylsulfonyl-4-trifluoromethoxyphenyl)ureidomethyl]-N-(2H-tetrazol-5-yl)benzamide]: the IC50 (value printed in the text of Example 315, read-out: Glu bd assay III) was determined as 22 nM.
For `O=C(Nc1nn[nH]n1)c1ccc(CN(C(=O)Nc2cc(Cl)cc(Cl)c2)c2ccc(N3CCCCC3)cc2)cc1` [Example 316, 4-[3-(3,5-Dichlorophenyl)-1-(4-piperidin-1-ylphenyl)ureidomethyl]-N-(2H-tetrazol-5-yl)benzamide], under setting [1], the IC50 amounted to 547 nM.
For the molecule `CSc1cccc(NC(=O)N(Cc2ccc(C(=O)Nc3nn[nH]n3)cc2)c2ccc(N3CCCCC3)cc2)c1` [Example 317, 4-[3-(3-Methylsulfanylphenyl)-1-(4-piperidin-1-ylphenyl)ureidomethyl]-N-(2H-tetrazol-5-yl)benzamide], the IC50 under setting [1] turned out to be 788 nM.
Regarding `O=C(Nc1nn[nH]n1)c1ccc(CN(C(=O)Nc2ccc(OC(F)(F)F)cc2)c2ccc(N3CCCCC3)cc2)cc1` [Example 318, 4-[1-(4-Piperidin-1-ylphenyl)-3-(4-trifluoromethoxyphenyl)ureidomethyl]-N-(2H-tetrazol-5-yl)benzamide], under setting [1], the IC50 came out at 247 nM.
Regarding `COc1cc(NC(=O)N(Cc2ccc(C(=O)Nc3nn[nH]n3)cc2)c2ccc(C3CCCCC3)cc2)cc(C(F)(F)F)c1` [Example 319, 4-[1-(4-Cyclohexylphenyl)-3-(3-methoxy-5-trifluoromethylphenyl)ureidomethyl]-N-(2H-tetrazol-5-yl)benzamide], under setting [1], the IC50 was 18 nM.
In the case of `CS(=O)(=O)c1ccc(NC(=O)N(Cc2ccc(C(=O)Nc3nn[nH]n3)cc2)c2ccc(C3CCCCC3)cc2)s1` [Example 320, 4-[1-(4-Cyclohexylphenyl)-3-(5-methylsulfonylthiophen-2-yl)ureidomethyl]-N-(2H-tetrazol-5-yl)benzamide], the IC50 under setting [1] worked out at 28 nM.
Still for that read-out and setting: under `CS(=O)(=O)c1cc(NC(=O)N(Cc2ccc(C(=O)Nc3nn[nH]n3)cc2)c2ccc(C3CCCCC3)cc2)cc(S(C)(=O)=O)c1` [Example 321, 4-[3-(3,5-Bis(methylsulfonyl)phenyl)-1-(4-cyclohexylphenyl)ureidomethyl]-N-(2H-tetrazol-5-yl)benzamide] stands 960 nM; under `CN(c1ccccc1)S(=O)(=O)c1cccc(NC(=O)N(Cc2ccc(C(=O)NCCC(=O)O)cc2)c2ccc(C3CCCCC3)cc2)c1` [Example 322, 3-(4-{1-(4-cyclohexylphenyl)-3-[3-(methylphenylsulfamoyl)phenyl]ureidomethyl}benzoylamino)propionic acid], 41 nM.
Turning to `O=C(Nc1nn[nH]n1)c1ccc(CN(C(=O)NCCc2ccccc2)c2ccc(C3CCCCC3)cc2)cc1` [Example 323, 4-[1-(4-Cyclohexylphenyl)-3-phenethylureidomethyl]-N-(2H-tetrazol-5-yl)benzamide], the IC50 under setting [1] is 102 nM.
On to `CC(C)(C)C1CCC(N(Cc2ccc(C(=O)Nc3nn[nH]n3)cc2)C(=O)NCCc2ccccc2)CC1` (stereo not shown) [Example 324, 4-[1-(4-tert-Butylcyclohexyl)-3-phenethylureidomethyl]-N-(2H-tetrazol-5-yl)benzamide], for which, under setting [1], the IC50 was found to be 277 nM.
As to `O=C(Nc1nn[nH]n1)c1ccc(CN(C(=O)Nc2ccc(Cl)c(Cl)c2)c2ccc(C3=CCCCC3)cc2)cc1` [Example 325, 4-[1-(4-Cyclohex-1-enylphenyl)-3-(3,4-dichlorophenyl)ureidomethyl]-N-(2H-tetrazol-5-yl)benzamide], the IC50 under setting [1] came to 25 nM.
